Test [1] has as its target T1, caspase-9 in 293 extracts (Homo sapiens, UniProt P55211).
T1 construct: endogenous in cells
Nature of the test: Intrinsic apoptosis assay in 293 extracts, KMB01 labeling of caspase-9. In kind it is biochemical. From the text:
To further confirm our assignment of the labeled species we treated samples at various activation times with purified recombinant Bir3 domain of XIAP. This polypeptide specifically binds to and inhibits caspase-9 but not caspase-3 or 7. […] We cannot rule out the possibility that p33 caspase-9 is the result of cleavage by some other protease or itself after it has already been labeled by KMB01 or inhibited by Bir3.
Profiling of caspase activity in 293 extracts that had been treated with AB06 at the same time as cytochrome c/dATP confirmed the selectivity of our inhibitor. […]
To confirm that our inhibitor AB06 was not reducing caspase 9 activity resulting in slow processing of caspase-7 and accumulation of a partially processed intermediate we treated extracts with a range of AB06 concentrations and monitored caspase-9 inhibition at various time points after cytochrome c/dATP addition. […]
Hypotonic 293 or MCF-7 extracts (4.7 μg/μl total protein concentration; 73 μg of total protein per time point) were activated by addition of cytochrome c (100 uM final) and dATP (1 mM final) for a range of times from 0-240 minutes as indicated. […] A portion (13.5 μg total protein) from each time point was analyzed by SDS-PAGE using 10-20% gradient gels followed by blotting for biotin as described above. […]

In test [2] the test system is mature downstream caspases (17-22 kDa) in 293 extracts. Nature of the test: Intrinsic apoptosis assay in 293 extracts with AB06, KMB01 labeling of mature downstream caspases. The class given is biochemical. The note with it: AB06 added at the same time as cytochrome c/dATP. From the text:
FIGS. 6 A-E illustrate that full-length active caspase-7 has unique inhibitor specificity and is processed to mature forms by downstream executioner caspases. (A) The caspase-3 specific inhibitor causes accumulation of a catalytically active full-length form of caspase-7. Cytosolic extracts from 293 cells were activated with cytochrome c/dATP for the indicated times followed by labeling with KMB01 (left panel) and western blotting with a caspase-7 specific antibody (right panel) as in FIG. 5A. […] (B) The exact same experiment as (A) except extracts from MCF-7 cells were used in place of 293 extracts. (**) indicates forms of caspase-7 that are likely a result of the alternative transcription start site at methionine-45 (C) Quantification of the relative activity of FL-C7 in uninhibited 293 extracts (from FIG. 5A), AB06 treated 293 extracts (from (A)) and uninhibited MCF-7 extracts (from (B)) (D) Inhibitor specificity of full-length and processed forms of caspase-7. Extracts (293) were activated for 5 min with cytochrome c/dATP and then incubated with NP-capped AOMK inhibitors containing the indicated primary amino acid sequences for 5 minutes before KMB01 was added and allowed to label residual caspase active sites for 30 minutes. Samples were analyzed by SDS-PAGE followed by biotin blotting using strepavidin-HRP (left panel) or western blotting for caspase-7 (right panel). […]

The test system of test [3] is endogenous caspases in intact Jurkat cells. Nature of the test: Direct labeling of endogenous caspase activity in live Jurkat cells. The note with it: anti-Fas or etoposide 15 h, probe 2 h; KMB01, bAB19 10 μM; bAB06, bAB13 1 μM. In kind it is cell-based.
Test [4] has as its system caspase-3, caspase-6, caspase-7, caspase-8, caspase-9. The note with it: Kato et al., 2005; cited from earlier work.

Entries after “also recorded” stand apart in the source; their conditions may differ.

T1 sequence (P55211 1-315 limits assumed): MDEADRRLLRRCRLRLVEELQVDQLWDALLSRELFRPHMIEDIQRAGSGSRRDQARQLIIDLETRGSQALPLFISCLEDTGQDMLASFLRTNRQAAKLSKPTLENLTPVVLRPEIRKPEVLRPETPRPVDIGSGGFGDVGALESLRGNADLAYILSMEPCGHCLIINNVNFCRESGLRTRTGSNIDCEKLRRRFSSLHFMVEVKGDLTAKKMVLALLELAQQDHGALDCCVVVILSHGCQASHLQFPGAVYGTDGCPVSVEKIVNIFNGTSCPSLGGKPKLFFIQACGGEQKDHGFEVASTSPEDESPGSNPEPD
T1 sequence (P55211 331-416 limits assumed): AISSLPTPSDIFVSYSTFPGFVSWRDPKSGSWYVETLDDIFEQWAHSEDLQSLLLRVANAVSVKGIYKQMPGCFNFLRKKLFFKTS
T1 sequence (O14727 whole entry partner): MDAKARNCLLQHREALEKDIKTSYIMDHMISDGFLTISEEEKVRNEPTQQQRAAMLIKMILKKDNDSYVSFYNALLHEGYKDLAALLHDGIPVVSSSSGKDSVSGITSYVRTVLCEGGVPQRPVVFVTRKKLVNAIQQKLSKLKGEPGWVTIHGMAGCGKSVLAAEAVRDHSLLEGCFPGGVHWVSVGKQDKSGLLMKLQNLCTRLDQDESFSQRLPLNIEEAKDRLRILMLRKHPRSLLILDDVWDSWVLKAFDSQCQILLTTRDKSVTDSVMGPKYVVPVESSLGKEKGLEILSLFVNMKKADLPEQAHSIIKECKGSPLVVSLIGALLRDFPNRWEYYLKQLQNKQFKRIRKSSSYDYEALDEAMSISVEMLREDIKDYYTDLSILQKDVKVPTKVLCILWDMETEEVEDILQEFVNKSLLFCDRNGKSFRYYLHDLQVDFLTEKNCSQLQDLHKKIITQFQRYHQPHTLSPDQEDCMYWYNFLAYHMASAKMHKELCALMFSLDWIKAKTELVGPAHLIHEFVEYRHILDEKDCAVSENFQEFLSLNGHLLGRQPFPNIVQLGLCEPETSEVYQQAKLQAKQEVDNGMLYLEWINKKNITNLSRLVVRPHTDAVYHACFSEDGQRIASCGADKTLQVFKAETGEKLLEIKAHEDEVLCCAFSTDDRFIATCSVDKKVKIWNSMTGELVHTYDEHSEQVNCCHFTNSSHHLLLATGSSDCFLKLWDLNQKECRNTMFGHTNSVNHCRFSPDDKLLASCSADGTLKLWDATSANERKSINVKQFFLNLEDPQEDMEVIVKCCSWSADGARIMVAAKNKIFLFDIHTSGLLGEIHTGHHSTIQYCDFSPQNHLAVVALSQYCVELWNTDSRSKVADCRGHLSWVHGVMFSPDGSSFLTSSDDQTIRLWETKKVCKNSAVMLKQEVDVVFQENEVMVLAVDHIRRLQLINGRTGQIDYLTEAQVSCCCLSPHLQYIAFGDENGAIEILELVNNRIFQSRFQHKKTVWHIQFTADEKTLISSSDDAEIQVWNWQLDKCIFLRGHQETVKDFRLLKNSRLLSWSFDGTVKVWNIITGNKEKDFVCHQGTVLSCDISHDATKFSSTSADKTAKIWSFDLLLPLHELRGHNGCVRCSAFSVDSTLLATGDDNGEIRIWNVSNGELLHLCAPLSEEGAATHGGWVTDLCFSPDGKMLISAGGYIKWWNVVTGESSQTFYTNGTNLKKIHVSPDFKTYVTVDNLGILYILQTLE
T1 sequence (P99999 2-105 partner limits assumed): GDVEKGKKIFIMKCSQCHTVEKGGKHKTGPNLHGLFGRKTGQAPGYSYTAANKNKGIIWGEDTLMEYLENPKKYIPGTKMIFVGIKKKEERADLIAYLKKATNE

In the case of `Cc1cccc(C)c1C(=O)OCC(=O)[C@H](CC(=O)O)NC(=O)[C@@H](NC(=O)[C@H](Cc1ccncc1)NC(=O)[C@H](CC(=O)O)NC(=O)Cc1ccc(O)c([N+](=O)[O-])c1)C(C)C` [AB06, Np-D-3-V-D-DMBA], in test [1] (AB06 added at the same time as cytochrome c/dATP), the “KMB01 labeling of processed forms of caspase-9 and precursor forms of caspase-7” value is given as “unaltered”. For the same compound, the “cross reactivity with caspase-9” value in test [1] (range of AB06 concentrations, as high as 10 μM for up to 30 minutes) is given as “lack of cross reactivity”. For the same compound, the “KMB01 labeling of mature downstream caspases” value in test [2] was “completely blocked”.
For the compound “Bio-EVD-AOMK [KMB01, reference compound]”, in test [3], the “labeling of endogenous caspases in intact cells” value was “robust labeling of downstream caspases-3 and 7; also recorded: did not show labeling of caspase-9”. For the same compound, the “labeling of caspases by probe” value in test [4] was “robust labeling of caspase-9 as well as caspase-3, caspase-7 and caspase-8”.

These data come from patent publication US20100068150A1, “Selective Caspase Inhibitors” (The Board of Trustees of the Leland Stanford Junior …, priority 2006, published 2010).
